From ChEMBL document CHEMBL4651402, “Screening of ~5500 FDA-approved drugs and clinical candidates for anti-SARS-CoV-2 activity” (2021)

System: SARS-CoV-2
Experiment: microbe, parasite or virus in culture
Conditions: Severe acute respiratory syndrome coronavirus 2, Vero C1008, 48 h

SMILES | IC50 [µM] | IC50 (read-out: pIC50 (converted)) [µM]
CC1=C(C)C(=O)C(C(CCCCCC(=O)O)c2ccccc2)=C(C)C1=O (stereo not given) [SERATRODAST] | > 20 | > 20
O=c1c(-c2ccc(O)cc2)coc2cc(O)cc(O)c12 [GENISTEIN] | > 20 | > 20
C[C@@H]1CC[C@]2(C(=O)O)CC[C@]3(C)C(=CCC4[C@@]5(C)CC[C@H](O)C(C)(C)C5CC[C@]43C)C2[C@H]1C (stereo not given in full) | > 20 | > 20
C[C@@]1(c2nc3cccc(C(N)=O)c3[nH]2)CCCN1 | > 20 | > 20
CNCC(O)c1ccc(O)cc1 (stereo not given) [OXEDRINE] | > 20 | > 20
CC(C)C(C)/C=C/C(C)C1CCC2C3=CC=C4CC(O)CCC4(C)[C@H]3CCC21C (stereo not given in full) | > 20 | > 20
CCC1C(=O)Nc2ccc(F)cc2N1C(=O)OC(C)C (stereo not given) | > 20 | > 20
COc1ccc2c3c1O[C@H]1C(=O)CC[C@@]4(O)[C@@H](C2)N(C)CC[C@]314 [OXYCODONE] | > 20 | > 20
Nc1ccc(/N=N/c2ccccc2)c(N)n1 [PHENAZOPYRIDINE] | > 20 | > 20
Cc1cc(CC(=O)O)c(C)n1-c1ccc(Cl)cc1 [CLOPIRAC] | > 20 | > 20
Cc1c(NC(C)C)c(=O)n(-c2ccccc2)n1C [RAMIFENAZONE] | > 20 | > 20
Clc1ccc(CCC(Cn2ccnc2)Sc2c(Cl)cccc2Cl)cc1 (stereo not given) [BUTOCONAZOLE] | > 20 | > 20
COc1c2ccoc2nc2c(OC)c(OC[C@@H](O)C(C)(C)O)ccc12 | > 20 | > 20
NC1CCN(c2cccc(Cl)n2)CC1 | > 20 | > 20
CCC(=O)c1ccc(O)cc1 [PAROXYPROPIONE] | > 20 | > 20
O=C(NNCS(=O)(=O)O)c1ccncc1 [METHANIAZIDE] | > 20 | > 20
C[N+]1([O-])[C@@H]2C[C@@H](OC(=O)[C@H](CO)c3ccccc3)C[C@H]1[C@@H]1O[C@@H]12 (stereo not given in full) | > 20 | > 20
CC(C)[N@+]1(C)C2CC[C@H]1C[C@@H](OC(=O)C(CO)c1ccccc1)C2 (stereo not given in full) | > 20 | > 20
O=C1CN(/N=C/c2ncc(-c3ccc(Br)cc3)o2)C(=O)N1 [AZUMOLENE] | > 20 | > 20
C[C@@H]1CN([C@H]2CC[C@](C#N)(c3ccc(F)cc3)CC2)CC[C@]1(C(=O)O)c1ccccc1 [LEVOCABASTINE] | > 20 | > 20
CC(C)N(CCC(CCN1CCCCC1)(C(N)=O)c1ccccc1Cl)C(C)C (stereo not given) [DISOBUTAMIDE] | > 20 | > 20
CC[C@H](NC(=O)[C@H](C)NC)C(=O)N1C[C@@H](O)C[C@H]1Cc1c(-c2[nH]c3cc(F)ccc3c2C[C@@H]2C[C@H](O)CN2C(=O)[C@H](CC)NC(=O)[C@H](C)NC)[nH]c2cc(F)ccc12 [BIRINAPANT] | > 20 | > 20
CC1=CC(=O)c2c(O)cccc2C1=O [PLUMBAGIN] | > 20 | > 20
CC(=O)c1ccc2c(c1)[C@@H]1C=CC[C@@H]1[C@H](c1cc3c(cc1Br)OCO3)N2 | > 20 | > 20
N[C@H]1C(O)O[C@H](CO)[C@@H](O)[C@@H]1O (stereo not given in full) [GLUCOSAMINE] | > 20 | > 20
CC(C)Oc1ccc2c(=O)c(-c3ccccc3)coc2c1 [IPRIFLAVONE] | > 20 | > 20
CCOc1ncc(S(=O)(=O)N2CCN(CC)CC2)cc1-c1nc2c(CC)n(CCOC)nc2c(=O)[nH]1 | > 20 | > 20
Cc1c(Cn2c(C)nc3c(C(=O)O)cc(N4CCOCC4)cc32)cccc1C(F)(F)F [GSK-2636771] | > 20 | > 20

SMILES | IC50 [µM] | IC50 (read-out: pIC50 (converted)) [µM]
COC(=O)Nc1nc2cc(C(=O)c3ccccc3)ccc2[nH]1 [MEBENDAZOLE] | > 20 | > 20
COc1nc(N)nc2c1ncn2[C@@H]1O[C@H](CO)[C@@H](O)[C@@H]1O [NELARABINE] | > 50.1 | > 50.1
CCN(CC)CCOC(=O)C(c1ccccc1)C1CCCCC1 (stereo not given) [DROFENINE] | > 20 | > 20
CC#CC(=O)N[C@H]1CCCN(c2c(F)cc(C(N)=O)c3[nH]c(C)c(C)c23)C1 [BRANEBRUTINIB] | > 20 | > 20
O=C1c2c(O)ccc(O)c2C(=O)c2c(NCCNCCO)ccc(NCCNCCO)c21 [MITOXANTRONE] | > 20 | > 20
C=CC(=O)Nc1cccc(Nc2nc(Nc3ccc(OCCOC)cc3)ncc2F)c1 [SPEBRUTINIB] | > 20 | > 20
CC[C@H](NC(=O)c1c(O)c(-c2ccccc2)nc2ccccc12)c1ccccc1 [TALNETANT] | > 20 | > 20
CN1C(=O)CC[C@H]1c1cccnc1 [COTININE] | > 20 | > 20
NCCc1ccc(O)c(O)c1 [DOPAMINE] | > 20 | > 20
C[C@@H]1CC[C@H]2[C@@H](C)C(=O)O[C@@H]3O[C@@]4(C)CC[C@@H]1[C@]32OO4 [ARTEMISININ] | > 20 | > 20
CN(C)C(=O)CCn1nc(Nc2ccc3c(c2)OC(F)(F)O3)nc1-c1ccncc1 [JNJ-39393406] | > 20 | > 20
Nc1ncnc2c1ncn2C1CC(O)C(CO)O1 (stereo not given) | > 20 | > 20
CCN(CC)CCOC(=O)c1ccc(N)cc1 [PROCAINE] | > 20 | > 20
CN1CCC(=C2c3ccccc3Oc3ncccc32)CC1 [AZANATOR] | > 20 | > 20
CC(C)(C)c1ccc(S(=O)(=O)Nc2ccc(Cl)cc2C(=O)c2cc[n+]([O-])cc2)cc1 [VERCIRNON] | > 20 | > 20
Oc1ccc(C(O)C2CCCCN2)cc1O (stereo not given) [RIMITEROL] | > 20 | > 20
O=C(Oc1cccc2cccnc12)c1ccccc1 [BENZOXIQUINE] | > 20 | > 20
CC[C@H](C)C[C@H](C)CCCCCCCCC(=O)N[C@H]1C[C@@H](O)[C@H](NCCN)NC(=O)[C@@H]2[C@@H](O)CCN2C(=O)[C@H]([C@H](O)CCN)NC(=O)C([C@H](O)[C@@H](O)c2ccc(O)cc2)NC(=O)[C@@H]2C[C@@H](O)CN2C(=O)C([C@@H](C)O)NC1=O (stereo not given in full) | > 20 | > 20
CCC(COC(=O)c1cc(OC)c(OC)c(OC)c1)(c1ccccc1)N(C)C (stereo not given) [TRIMEBUTINE] | > 20 | > 20
NCCOC[C@H](N)C(=O)O | > 20 | > 20
CNC(=O)c1ccc2cc([C@]3(O)CCn4cncc43)ccc2c1 | > 20 | > 20
CCCC1C(=O)N2C(N(C)C)=Nc3ccc(C)cc3N2C1=O (stereo not given) [APAZONE] | > 20 | > 20
CCCCCC(C)(O)/C=C/C1CCC(=O)C1CCCCCCC(=O)O (stereo not given) | > 20 | > 20
COC1=C(O)C(=O)c2c(cc3oc(C(C)=O)c(O)c3c2O)C1=O [RHODOCLADONIC ACID] | > 20 | > 20
Cc1ccc(C23CNCC2C3)cc1 (stereo not given) [BICIFADINE] | > 20 | > 20
CCN(Cc1ccccc1)C(=O)Cn1c(=O)n(C)c2cnc(-c3ccccc3)nc21 | > 20 | > 20
Cc1c(C(N)=O)cc([N+](=O)[O-])cc1[N+](=O)[O-] [DINITOLMIDE] | > 20 | > 20
